Source: the supplement of paper PMC10627819

Experiments:
S. pneumoniae D39V [1] = assay: fitness (endpoint OD595 vs no drug) (fraction); higher = more growth
How it was run: (§1)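 Growth medium was TSB, LB Lennox or CY, and plates were kept at 37 °C. Inoculation was at OD595 0.01 in 384-well plates, at 30 µl per well or 55 µl for S. pneumoniae. OD595 was monitored every 30 min for 14 h and background-subtracted using the first reading. Fitness is the optical density on entering stationary phase divided by the robust mean of no-drug controls, with values capped at 1.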

B. subtilis 168 [2] = assay: Bliss interaction score (quartile over a dose matrix) (fitness difference); higher = more antagonism (negative = synergy)
How it was run: (§2)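 Fitness was derived from optical density at entry into stationary phase, divided by the robust mean of the no-drug wells on the same plate. That reading was taken as OD595, and the ratio was capped at 1. Single-drug fitness was inferred from the combination data. The Bliss score, observed fitness minus the expected product of single-drug fitness, was summarised as quartiles over technical, biological and donor/recipient replicates.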

S. aureus DSM 20231 = assay: as above
How it was run: as §2

S. aureus Newman = assay: as above
How it was run: as §2

S. pneumoniae D39V [3] = assay: as above
How it was run: as §2

B. subtilis 168 [4] = assay: fitness (endpoint OD595 vs no drug) (fraction); higher = more growth
How it was run: as §1
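Throughout, for Bliss interaction score (quartile over a dose matrix): first quartile when negative (synergy) and third quartile when positive (antagonism).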

CO[C@H]1/C=C/O[C@@]2(C)Oc3c(C)c(O)c4c(O)c(c(/C=N/N5CCN(C)CC5)c(O)c4c3C2=O)NC(=O)/C(C)=C\C=C\[C@H](C)[C@H](O)[C@@H](C)[C@@H](O)[C@@H](C)[C@H](OC(C)=O)[C@@H]1C [Rifampicin] + CC1=C\[C@@H](O)CC(=O)Cc2nc(co2)C(=O)N2CCC=C2C(=O)O[C@H](C(C)C)[C@H](C)/C=C/C(=O)NC\C=C\1 [Virginiamycin M1]
S. pneumoniae D39V [1], one replicate
Conditions	fitness
first compound 0.025 µg/mL, partner 0.5 µg/mL	0.876
first compound 0.025 µg/mL, partner 1 µg/mL	0.905
first compound 0.025 µg/mL, partner 2 µg/mL	0.822
first compound 0.05 µg/mL, partner 0.15 µg/mL	≥ 1
first compound 0.05 µg/mL, partner 0.3 µg/mL	0.993
first compound 0.1 µg/mL, partner 0.15 µg/mL	0.891
first compound 0.1 µg/mL, partner 0.3 µg/mL	0.884
first compound 0.2 µg/mL, partner 0.15 µg/mL	0.267
first compound 0.2 µg/mL, partner 0.3 µg/mL	0.203

S. pneumoniae D39V [1], first compound 0.2 µg/mL
Conditions	fitness
partner 0.5 µg/mL	0.194
partner 1 µg/mL	0.0581
partner 2 µg/mL	0.129

Conditions	Bliss interaction score
B. subtilis 168 [2]	-0.0938
S. aureus DSM 20231	0.0924
S. aureus Newman	-0.0218
S. pneumoniae D39V [3]	0.111

CO[C@H]1/C=C/O[C@@]2(C)Oc3c(C)c(O)c4c(O)c(c(/C=N/N5CCN(C)CC5)c(O)c4c3C2=O)NC(=O)/C(C)=C\C=C\[C@H](C)[C@H](O)[C@@H](C)[C@@H](O)[C@@H](C)[C@H](OC(C)=O)[C@@H]1C [Rifampicin] + CN(C)c1cc(NC(=O)CNC(C)(C)C)c(O)c2c1C[C@H]1C[C@H]3[C@H](N(C)C)C(O)=C(C(N)=O)C(=O)[C@@]3(O)C(O)=C1C2=O [Tigecycline]
S. pneumoniae D39V [1], first compound 0.025 µg/mL, one replicate
Conditions	fitness
partner 0.65 µg/mL	0.86
partner 1.3 µg/mL	0.808
partner 2.6 µg/mL	0.839

S. pneumoniae D39V [1], first compound 0.2 µg/mL
Conditions	fitness
partner 0.65 µg/mL	0.197
partner 1.3 µg/mL	0.159
partner 2.6 µg/mL	0.196

Conditions	Bliss interaction score
B. subtilis 168 [2]	0.0457
S. aureus DSM 20231	0.026
S. aureus Newman	-0.0189
S. pneumoniae D39V [3]	-0.0785

CO[C@H]1/C=C/O[C@@]2(C)Oc3c(C)c(O)c4c(O)c(c(/C=N/N5CCN(C)CC5)c(O)c4c3C2=O)NC(=O)/C(C)=C\C=C\[C@H](C)[C@H](O)[C@@H](C)[C@@H](O)[C@@H](C)[C@H](OC(C)=O)[C@@H]1C [Rifampicin] + CN(N=O)C(=O)N[C@@H](C=O)[C@@H](O)[C@H](O)[C@H](O)CO [Streptozotocin]
S. pneumoniae D39V [1], first compound 0.025 µg/mL, one replicate
Conditions	fitness
partner 1.2 µg/mL	0.825
partner 2.4 µg/mL	0.838
partner 4.8 µg/mL	0.786

fitness, S. pneumoniae D39V [1]
Conditions	partner 1.2 µg/mL	partner 2.4 µg/mL	partner 4.8 µg/mL
first compound 0.05 µg/mL	0.831	0.879	0.766
first compound 0.2 µg/mL	0.0914	0.108	0

Conditions	Bliss interaction score
B. subtilis 168 [2]	-0.0644
S. aureus DSM 20231	0.034
S. aureus Newman	-0.0244
S. pneumoniae D39V [3]	-0.0476

CO[C@H]1/C=C/O[C@@]2(C)Oc3c(C)c(O)c4c(O)c(c(/C=N/N5CCN(C)CC5)c(O)c4c3C2=O)NC(=O)/C(C)=C\C=C\[C@H](C)[C@H](O)[C@@H](C)[C@@H](O)[C@@H](C)[C@H](OC(C)=O)[C@@H]1C [Rifampicin] + CN[C@@H]1[C@H](O)[C@H](NC)[C@H]2O[C@@]3(O)C(=O)C[C@@H](C)O[C@H]3O[C@@H]2[C@H]1O [Spectinomycin]
fitness, S. pneumoniae D39V [1], one replicate
Conditions	partner 4 µg/mL	partner 8 µg/mL	partner 16 µg/mL
first compound 0.025 µg/mL	0.848	0.716	0.282
first compound 0.2 µg/mL	–	–	0

fitness, S. pneumoniae D39V [1]
Conditions	first compound 0.05 µg/mL	first compound 0.1 µg/mL	first compound 0.2 µg/mL
partner 4 µg/mL	0.497	0.297	0.0634
partner 8 µg/mL	–	0.202	0.069
partner 16 µg/mL	0.23	0.204	–

Conditions	Bliss interaction score
B. subtilis 168 [2]	-0.0584
S. aureus DSM 20231	-0.0309
S. aureus Newman	0.0508
S. pneumoniae D39V [3]	-0.153

CN[C@@H]1[C@H](O[C@H]2[C@H](O[C@H]3[C@H](O)[C@@H](O)[C@H](N=C(N)N)[C@@H](O)[C@@H]3N=C(N)N)O[C@@H](C)[C@]2(O)C=O)O[C@@H](CO)[C@H](O)[C@H]1O [Streptomycin] + COc1cc(Cc2cnc(N)nc2N)cc(OC)c1OC [Trimethoprim]
fitness, B. subtilis 168 [4], one replicate
Conditions	partner 0.1 µg/mL	partner 0.125 µg/mL	partner 0.2 µg/mL	partner 0.4 µg/mL
first compound 2 µg/mL	0.713	0.605	0.493	0.253
first compound 4 µg/mL	0.0534	0.0554	0.0535	0.0313
first compound 8 µg/mL	0.0279	0.0253	0.0392	0.025

fitness, B. subtilis 168 [4]
Conditions	partner 0.25 µg/mL	partner 0.5 µg/mL	partner 1 µg/mL	partner 2 µg/mL
first compound 2 µg/mL	0.416	0.103	0.0483	0.0464
first compound 4 µg/mL	0.0303	0.0474	0.0558	0.0621
first compound 8 µg/mL	0.0127	0.0322	0.0309	0.0326

Conditions	Bliss interaction score
B. subtilis 168 [2]	-0.252
S. aureus DSM 20231	-0.0639
S. aureus Newman	0.0902
S. pneumoniae D39V [3]	-0.175
